For twelve compounds, caspase activation and AC10 results are on record in PubChem BioAssay AID504343 (Broad Institute, 2011).

The structures appear in SMILES notation. Results filed as inconclusive are left out. Activity calls are given as the source filed them.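 How the source made its calls: active means fitted curve reaches 10% of positive control caspase signal at or below top valid tested dose; inconclusive means flat fit at 30 to 70% activity, or unreliable fit; inactive means the rest.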 Bounds are passed on as bounds.

Test system in one assay: not listed separately
The experiment in a line: caspase activation in Mcl1-dependent HMC1-8 cells, dose response, selectivity assay for Bcl2-A1 inhibitor project, cell-based, caspase luminescence, dry powder, set 2 (AID 504343). Particulars: HMC1-8 Mcl1-dependent cells, caspase-Glo luminescence, 4 h; at 35 µM (top of the series).
Consider `Cc1ccc(Nc2c([N+](=O)[O-])c(=O)oc3ccccc23)cc1`, for which the caspase activation was 12.1% (inactive). As to `Cn1c(=O)c([N+](=O)[O-])c(Cl)c2ccccc21`, the caspase activation was -12.8% (inactive). In the case of `CCOCCCNc1c([N+](=O)[O-])c(=O)n(C)c2ccccc12`, the caspase activation was -2.94% (inactive). On the same count and under the same terms, then `Cn1c(=O)c([N+](=O)[O-])c(Nc2ccc(Cl)cc2)c2ccccc21`, with 1.67% (inactive).

Take `CN1C(=O)C(C)(C)N(Cc2ccccc2)c2ccccc21`: the caspase activation is 9.6% (inactive).

Regarding `Cc1ccc(Sc2c([N+](=O)[O-])c(=O)n(C)c3ccccc23)cc1`, the caspase activation was 0.553% (inactive). Still for that read-out and setting: in the case of `Cn1c(=O)c([N+](=O)[O-])c(Oc2ccccc2)c2ccccc21` it was 2.58% (inactive).

`Cc1ccc(Nc2c([N+](=O)[O-])c(=O)n(C)c3ccccc23)cc1`: the caspase activation is 10.1% (inactive).

Another assay concerns HMC1-8 Mcl1-dependent cells, caspase-Glo luminescence, 4 h. The assay is described as above.
Details: not given
Regarding `C/C1=C/C(=O)O[C@@H]2C[C@@H](CC[C@H](C)/C=C\CC1)O[C@@](O)(C1CSC(=O)N1)C2` (some centres not stated), the AC10 was > 35 µM (inactive). The same measure, in the same setting: then `O=[N+]([O-])c1cnc2ccccc2c1Sc1ccccc1`, with 25 µM; and `Cn1c(=O)c([N+](=O)[O-])c(-n2cnc3ccccc32)c2ccccc21`, with 20 µM. Consider `Cc1ccc(Sc2c([N+](=O)[O-])cnc3ccccc23)cc1`, for which the AC10 is 25 µM.
